Values of other authors, collected in US11413271B2, “Oral eliglustat transmucosal delivery system” (ABON PHARMACEUTICALS LLC., priority 2018, dated 2022).

Bioavailability in EMs (estimated) (CYP2D6 extensive metabolizers): about 4.17% | Increase of systemic exposure (AUC0-12) at steady state compared to after the first dose (AUC0-∞) (multiple oral doses of 84 mg twice daily in EMs): up to 2 fold
Structure (SMILES): CCCCCCCC(=O)N[C@H](CN1CCCC1)[C@H](O)c1ccc2c(c1)OCCO2 [eliglustat]
